Assay results as given in patent US20040019092A1, “Non-peptide somatostatin receptor ligands” (priority 2001, published 2004).
Several values for one entry are separate records, joined by “and”; a condition that tells them apart may be missing. Equal values may be shown once.

Columns and labels:
[1] = system: SRIF receptors ([^125I]SRIF-28 binding sites); assay: Ex-vivo [^125I]Tyr^26-SRIF-28 binding in rat cortex and hippocampus after s.c. dosing; set-up: species or system Wistar rats; settings: 60 min
Protocol: Ex-vivo binding was used to determine to whether compound 14 (a potent sst2 receptor selective hydantoin) when applied peripherally to rates can cross the blood brain barrier, as robust behavioral models are not fully characterized and blood-brain penetration models are not routinely available. […] The rats were given saline or drug sub-cutaneously at the indicated dose (in saline) and killed 60 minutes after application with CO2. The brain was removed and placed on ice; the cerebral cortex and hippocampus were dissected out and weighted. […] The homogenate was stored on ice and used immediately or deep frozen (-70° C.) until used (1-3 days). […] The tables list the effects of compound 14 on cortex (Table 6) and hippocampus (Table 7) binding at the doses and times indicated (see also FIGS. 3 and 4). TB=total binding, NS=non specific binding, SB=specific binding. The values are indicated in cpm for individual animals, mean, n=number of animals, sem=standard error of the mean; percent=% specific binding remaining following treatment compared to controls.

[2] = target: T1, SS-1 sites (sst2 receptors) (Rattus norvegicus, UniProt P30680); assay: Ex-vivo binding of [^125I]-labeled Tyr^3 analogue of Octreotride (SS-1/sst2) in rat cortex and hippocampus after s.c. dosing; set-up: species or system Wistar rats; settings: for NS non specific binding, individual animals / NS non specific binding, mean / SB specific binding, individual animals / SB specific binding, mean / TB total binding, individual animals / TB total binding, mean / percent specific binding remaining compared to controls: Tyr^3-Oct, 60 min
T1 construct: from tissue; host or cells: Wistar rat cerebral cortex and hippocampus homogenate
Protocol: Ex-vivo binding was used to determine to whether compound 14 (a potent sst2 receptor selective hydantoin) when applied peripherally to rates can cross the blood brain barrier, as robust behavioral models are not fully characterized and blood-brain penetration models are not routinely available. […] The rats were given saline or drug sub-cutaneously at the indicated dose (in saline) and killed 60 minutes after application with CO2. The brain was removed and placed on ice; the cerebral cortex and hippocampus were dissected out and weighted. […] The homogenate was stored on ice and used immediately or deep frozen (-70° C.) until used (1-3 days). […] The filters were dried and counted in a Wallac Beta plate counter. The tables list the effects of compound 14 on cortex (Table 6) and hippocampus (Table 7) binding at the doses and times indicated (see also FIGS. 3 and 4). TB=total binding, NS=non specific binding, SB=specific binding. The values are indicated in cpm for individual animals, mean, n=number of animals, sem=standard error of the mean; percent=% specific binding remaining following treatment compared to controls.

[3] = cortex, SRIF-28 +MgCl-2, 0.3 mg/kg s.c.
[4] = cortex, SRIF-28 +MgCl-2, 1 mg/kg s.c.
[5] = cortex, SRIF-28 +MgCl-2, 3 mg/kg s.c.
[6] = cortex, SRIF-28 +MgCl-2, 10 mg/kg s.c.
[7] = hippocampus, SRIF-28 +MgCl-2, 0.3 mg/kg s.c.
[8] = hippocampus, SRIF-28 +MgCl-2, 1 mg/kg s.c.
[9] = hippocampus, SRIF-28 +MgCl-2, 3 mg/kg s.c.
[10] = hippocampus, SRIF-28 +MgCl-2, 10 mg/kg s.c.

T1 sequence (P30680 whole entry): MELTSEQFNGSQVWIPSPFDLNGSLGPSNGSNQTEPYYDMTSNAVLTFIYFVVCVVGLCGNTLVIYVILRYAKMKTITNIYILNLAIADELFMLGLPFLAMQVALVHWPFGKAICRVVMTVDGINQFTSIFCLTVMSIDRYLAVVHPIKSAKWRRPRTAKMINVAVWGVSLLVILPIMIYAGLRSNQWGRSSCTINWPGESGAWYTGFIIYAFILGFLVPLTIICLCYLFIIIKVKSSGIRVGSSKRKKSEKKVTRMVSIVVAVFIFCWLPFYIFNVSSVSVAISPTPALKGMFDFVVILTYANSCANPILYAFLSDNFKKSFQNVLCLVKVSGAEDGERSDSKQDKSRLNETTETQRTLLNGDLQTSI

Cc1cccc2c(CC3C(=O)N(CCCCCN)C(=O)N3S(=O)(=O)c3ccc(Oc4ccc(O)cc4)c(C#N)c3)c[nH]c12 (centres unmarked) [Compound 14]
NS non specific binding, individual animals [1, 3]: 3058 cpm and 2970 cpm and 3027 cpm | NS non specific binding, mean [1, 3]: 3018 cpm | SB specific binding, individual animals [1, 3]: 24318 cpm and 23238 cpm and 23669 cpm | SB specific binding, mean [1, 3]: 23742 cpm | TB total binding, individual animals [1, 3]: 27376 cpm and 26208 cpm and 26696 cpm | TB total binding, mean [1, 3]: 26760 cpm | percent specific binding remaining compared to controls [1, 3]: 89% | NS non specific binding, individual animals [1, 4]: 2915 cpm and 3036 cpm and 3191 cpm | NS non specific binding, mean [1, 4]: 3047 cpm | SB specific binding, individual animals [1, 4]: 21767 cpm and 23930 cpm and 23905 cpm | SB specific binding, mean [1, 4]: 23201 cpm | TB total binding, individual animals [1, 4]: 24682 cpm and 26966 cpm and 27096 cpm | TB total binding, mean [1, 4]: 26248 cpm | percent specific binding remaining compared to controls [1, 4]: 95% | NS non specific binding, individual animals [1, 5]: 2980 cpm and 3016 cpm and 3116 cpm | NS non specific binding, mean [1, 5]: 3037 cpm | SB specific binding, individual animals [1, 5]: 22191 cpm and 21992 cpm and 22578 cpm | SB specific binding, mean [1, 5]: 22254 cpm | TB total binding, individual animals [1, 5]: 25171 cpm and 25008 cpm and 25694 cpm | TB total binding, mean [1, 5]: 25291 cpm | percent specific binding remaining compared to controls [1, 5]: 91% | NS non specific binding, individual animals [1, 6]: 3070 cpm and 3015 cpm and 3305 cpm | NS non specific binding, mean [1, 6]: 3130 cpm | SB specific binding, individual animals [1, 6]: 22730 cpm and 21395 cpm and 23605 cpm | SB specific binding, mean [1, 6]: 22577 cpm | TB total binding, individual animals [1, 6]: 25800 cpm and 24410 cpm and 26910 cpm | TB total binding, mean [1, 6]: 25707 cpm | percent specific binding remaining compared to controls [1, 6]: 93% | NS non specific binding, individual animals [1, 7]: 2936 cpm and 2874 cpm and 2753 cpm | NS non specific binding, mean [1, 7]: 2854 cpm | SB specific binding, individual animals [1, 7]: 18219 cpm and 18124 cpm and 19319 cpm | SB specific binding, mean [1, 7]: 18554 cpm | TB total binding, individual animals [1, 7]: 21155 cpm and 20998 cpm and 22072 cpm | TB total binding, mean [1, 7]: 21408 cpm | percent specific binding remaining compared to controls [1, 7]: 112% | NS non specific binding, individual animals [1, 8]: 2754 cpm and 2528 cpm and 2621 cpm | NS non specific binding, mean [1, 8]: 2634 cpm | SB specific binding, individual animals [1, 8]: 17055 cpm and 18516 cpm and 18145 cpm | SB specific binding, mean [1, 8]: 17905 cpm | TB total binding, individual animals [1, 8]: 19809 cpm and 21044 cpm and 20766 cpm | TB total binding, mean [1, 8]: 20540 cpm | percent specific binding remaining compared to controls [1, 8]: 108% | NS non specific binding, individual animals [1, 9]: 2532 cpm and 2841 cpm and 2786 cpm | NS non specific binding, mean [1, 9]: 2720 cpm | SB specific binding, individual animals [1, 9]: 15758 cpm and 14336 cpm and 15162 cpm | SB specific binding, mean [1, 9]: 15085 cpm | TB total binding, individual animals [1, 9]: 18290 cpm and 17117 cpm and 17948 cpm | TB total binding, mean [1, 9]: 17805 cpm | percent specific binding remaining compared to controls [1, 9]: 91% | NS non specific binding, individual animals [1, 10]: 2587 cpm and 2850 cpm and 2711 cpm | NS non specific binding, mean [1, 10]: 2716 cpm | SB specific binding, individual animals [1, 10]: 15809 cpm and 14387 cpm and 13715 cpm | SB specific binding, mean [1, 10]: 14637 cpm | TB total binding, individual animals [1, 10]: 18398 cpm and 17237 cpm and 18426 cpm | TB total binding, mean [1, 10]: 17353 cpm | percent specific binding remaining compared to controls [1, 10]: 88% | maximal decrease of sst2 (SS-1) binding ([2]; cortex and hippocampus, 10 mg/kg subcutaneous, 60 minutes): about 20% | NS non specific binding, individual animals ([2]; cortex, 0.3 mg/kg s.c.): 2753 cpm and 2634 cpm and 2685 cpm | NS non specific binding, mean ([2]; cortex, 0.3 mg/kg s.c.): 2691 cpm | SB specific binding, individual animals ([2]; cortex, 0.3 mg/kg s.c.): 22427 cpm and 21257 cpm and 23789 cpm | SB specific binding, mean ([2]; cortex, 0.3 mg/kg s.c.): 22491 cpm | TB total binding, individual animals ([2]; cortex, 0.3 mg/kg s.c.): 25180 cpm and 23891 cpm and 26474 cpm | TB total binding, mean ([2]; cortex, 0.3 mg/kg s.c.): 25182 cpm | percent specific binding remaining compared to controls ([2]; cortex, 0.3 mg/kg s.c.): 98% | NS non specific binding, individual animals ([2]; cortex, 1 mg/kg s.c.): 2623 cpm and 2705 cpm and 2642 cpm | NS non specific binding, mean ([2]; cortex, 1 mg/kg s.c.): 2657 cpm | SB specific binding, individual animals ([2]; cortex, 1 mg/kg s.c.): 19722 cpm and 23378 cpm and 21824 cpm | SB specific binding, mean ([2]; cortex, 1 mg/kg s.c.): 21641 cpm | TB total binding, individual animals ([2]; cortex, 1 mg/kg s.c.): 22345 cpm and 26063 cpm and 24466 cpm | TB total binding, mean ([2]; cortex, 1 mg/kg s.c.): 24298 cpm | percent specific binding remaining compared to controls ([2]; cortex, 1 mg/kg s.c.): 94% | NS non specific binding, individual animals ([2]; cortex, 3 mg/kg s.c.): 2519 cpm and 2511 cpm and 2559 cpm | NS non specific binding, mean ([2]; cortex, 3 mg/kg s.c.): 2530 cpm | SB specific binding, individual animals ([2]; cortex, 3 mg/kg s.c.): 20444 cpm and 19624 cpm and 21700 cpm | SB specific binding, mean ([2]; cortex, 3 mg/kg s.c.): 20658 cpm | TB total binding, individual animals ([2]; cortex, 3 mg/kg s.c.): 22963 cpm and 22335 cpm and 24259 cpm | TB total binding, mean ([2]; cortex, 3 mg/kg s.c.): 23186 cpm | percent specific binding remaining compared to controls ([2]; cortex, 3 mg/kg s.c.): 90% | NS non specific binding, individual animals ([2]; cortex, 10 mg/kg s.c.): 2527 cpm and 2575 cpm and 2740 cpm | NS non specific binding, mean ([2]; cortex, 10 mg/kg s.c.): 2614 cpm | SB specific binding, individual animals ([2]; cortex, 10 mg/kg s.c.): 19525 cpm and 18340 cpm and 19640 cpm | SB specific binding, mean ([2]; cortex, 10 mg/kg s.c.): 19168 cpm | TB total binding, individual animals ([2]; cortex, 10 mg/kg s.c.): 22052 cpm and 20915 cpm and 22380 cpm | TB total binding, mean ([2]; cortex, 10 mg/kg s.c.): 21782 cpm | percent specific binding remaining compared to controls ([2]; cortex, 10 mg/kg s.c.): 84% | NS non specific binding, individual animals ([2]; hippocampus, 0.3 mg/kg s.c.): 2116 cpm and 2294 cpm and 2092 cpm | NS non specific binding, mean ([2]; hippocampus, 0.3 mg/kg s.c.): 2167 cpm | SB specific binding, individual animals ([2]; hippocampus, 0.3 mg/kg s.c.): 12566 cpm and 13303 cpm and 16338 cpm | SB specific binding, mean ([2]; hippocampus, 0.3 mg/kg s.c.): 14069 cpm | TB total binding, individual animals ([2]; hippocampus, 0.3 mg/kg s.c.): 14682 cpm and 15597 cpm and 18430 cpm | TB total binding, mean ([2]; hippocampus, 0.3 mg/kg s.c.): 16238 cpm | percent specific binding remaining compared to controls ([2]; hippocampus, 0.3 mg/kg s.c.): 113% | NS non specific binding, individual animals ([2]; hippocampus, 1 mg/kg s.c.): 2144 cpm and 1953 cpm and 1913 cpm | NS non specific binding, mean ([2]; hippocampus, 1 mg/kg s.c.): 2003 cpm | SB specific binding, individual animals ([2]; hippocampus, 1 mg/kg s.c.): 12048 cpm and 15010 cpm and 14100 cpm | SB specific binding, mean ([2]; hippocampus, 1 mg/kg s.c.): 13719 cpm | TB total binding, individual animals ([2]; hippocampus, 1 mg/kg s.c.): 14192 cpm and 16963 cpm and 16013 cpm | TB total binding, mean ([2]; hippocampus, 1 mg/kg s.c.): 15723 cpm | percent specific binding remaining compared to controls ([2]; hippocampus, 1 mg/kg s.c.): 110% | NS non specific binding, individual animals ([2]; hippocampus, 3 mg/kg s.c.): 1859 cpm and 1984 cpm and 1959 cpm | NS non specific binding, mean ([2]; hippocampus, 3 mg/kg s.c.): 1934 cpm | SB specific binding, individual animals ([2]; hippocampus, 3 mg/kg s.c.): 11172 cpm and 9232 cpm and 10980 cpm | SB specific binding, mean ([2]; hippocampus, 3 mg/kg s.c.): 10461 cpm | TB total binding, individual animals ([2]; hippocampus, 3 mg/kg s.c.): 13031 cpm and 11216 cpm and 12939 cpm | TB total binding, mean ([2]; hippocampus, 3 mg/kg s.c.): 12395 cpm | percent specific binding remaining compared to controls ([2]; hippocampus, 3 mg/kg s.c.): 84% | NS non specific binding, individual animals ([2]; hippocampus, 10 mg/kg s.c.): 1886 cpm and 2078 cpm and 2037 cpm | NS non specific binding, mean ([2]; hippocampus, 10 mg/kg s.c.): 2000 cpm | SB specific binding, individual animals ([2]; hippocampus, 10 mg/kg s.c.): 11059 cpm and 10041 cpm and 8937 cpm | SB specific binding, mean ([2]; hippocampus, 10 mg/kg s.c.): 10012 cpm | TB total binding, individual animals ([2]; hippocampus, 10 mg/kg s.c.): 12945 cpm and 12119 cpm and 10974 cpm | TB total binding, mean ([2]; hippocampus, 10 mg/kg s.c.): 12013 cpm | percent specific binding remaining compared to controls ([2]; hippocampus, 10 mg/kg s.c.): 80%
